Laboratory results reported in US20240325398A1, “COMBINATION THERAPIES” (Infinity Pharmaceuticals, Inc., priority 2014, published 2024).

Columns and labels:
[1] = test system: CDK1, CDK2, CDK4, CDK7 and CDK9; conditions: in words; cited from earlier work
RL = assay: Combination study, ATPLite 72 h, dose matrix (Synergy Score, CI50); conditions: combination with Compound 1, 72 h
Jeko-1 = assay: as above; conditions: combination with Compound 1
KARPAS-422 = assay: as above; conditions: combination with Compound 1, 72 h
TMD8 = assay: as above; conditions: combination with Compound 1; for CI50 growth inhibition / CI50 inhibition / Synergy Score growth inhibition / Synergy Score inhibition: TMD8, 72 h
Mino = assay: as above; conditions: combination with Compound 1
Description: (§1) Cells are thawed from a liquid nitrogen preserved state. Once cells have been expanded and divide at their expected doubling times, screening begins. Cells are seeded in growth media in either black 1536-well or 384-well tissue culture treated plates. Cells are then equilibrated in assay plates via centrifugation and placed in incubators attached to the Dosing Modules at 37° C. for 24 hours before treatment. […] These Tzero (To) plates are read using ultra-sensitive luminescence on Envision plate readers (Perkin Elmer). Treated assay plates are incubated with compound for 72 hours. After 72 hours, plates are developed for endpoint analysis using ATPLite. All data points are collected via automated processes, quality controlled and analyzed using Zalicus software.
(§2) where T is treated cell count and V is untreated (vehicle) cell count (at 72 hours). I ranges from 0% (when T=V) to 100% (when T=0). […] The measure of effect in the experiment can be the inhibition of cellular response relative to the untreated level (vehicle alone). […] The inhibition ranges from 0% at the untreated level to 100% when T=0. Inhibition levels are negative for agents that actually increase levels. Other effect measures, such as an activity ratio r=T/V may be more appropriate for some assays. When activity ratios (e.g, fold increase over stimulated control) are being used, the effect can be measured using an induction 1=ln(T/V). With this definition, all effect expressions are the same as for inhibition.
(§3) Growth Inhibition (GI) is used as a measure of cell viability. […] A GI reading of 100% represents complete growth inhibition—T72 compound-treated and T0 vehicle signals are matched. […] A GI reading of 200% represents complete death of all cells in the culture well. Compounds reaching an activity plateau of GI 200% are considered cytotoxic. GI is calculated by applying the following test and equation:
(§4) Combination analysis data were collected in a 6×6 dose matrix. Synergy is calculated by comparing a combination's response to those of its single compound, against the drug-with-itself dose-additive reference model. Deviations from dose additivity may be assessed visually on an isobologram or numerically with a Combination Index (CI). […] Additive effect is CI=1.0. […] Antagonistic effect is CI>1.0.
(§5) To measure combination effects in excess of Loewe additivity, a scalar measure to characterize the strength of synergistic interaction termed the Synergy Score is devised. The Synergy Score is calculated as:
(§6) The fractional inhibition for each component agent and combination point in the matrix is calculated relative to the median of all vehicle-treated control wells. The Synergy Score equation integrates the experimentally-observed activity volume at each point in the matrix in excess of a model surface numerically derived from the activity of the component agents using the Loewe model for additivity. Additional terms in the Synergy Score equation (above) are used to normalize for various dilution factors used for individual agents and to allow for comparison of synergy scores across an entire experiment. The inclusion of positive inhibition gating or an Idata multiplier removes noise near the zero effect level, and biases results for synergistic interactions at that occur at high activity levels.
(§7) Loewe Volume (Loewe Vol) is used to assess the overall magnitude of the combination interaction in excess of the Loewe additivity model. Loewe Volume is particularly useful when distinguishing synergistic increases in a phenotypic activity (positive Loewe Volume) versus synergistic antagonisms (negative Loewe Volume). […] This model defines additivity as a non-synergistic combination interaction where the combination dose matrix surface should be indistinguishable from either drug crossed with itself.

OCI-Ly7 = assay: as above; conditions: combination with Compound 1, 72 h
HH = assay: as above; format: cell-based; conditions: combination with Compound 1
Description: The method is described as follows.
Additive effect is CI=1.0. […] Antagonistic effect is CI>1.0.
The Synergy Score is calculated as: […]

RPMI-8226 = assay: as above; conditions: combination with Compound 1
U-2932 = assay: as above; conditions: combination with Compound 1, 72 h
WSU-NHL = assay: as above; conditions: combination with Compound 1, 72 h
OCI-Ly3 = assay: as above; conditions: combination with Compound 1; OCI-Ly3; 72 h
NCI-H929 = assay: as above; conditions: combination with Compound 1
Description: as §1, §2, §3, §4, §5, §6, §7

HBL-1 = assay: as above; conditions: combination with Compound 1, 72 h
KARPAS-299 = assay: as above; conditions: combination with Compound 1
DOHH-2 = assay: as above; conditions: combination with Compound 1, 72 h
Description: as §1
(§8) The measure of effect in the experiment can be the inhibition of cellular response relative to the untreated level (vehicle alone). […] The inhibition ranges from 0% at the untreated level to 100% when T=0. Inhibition levels are negative for agents that actually increase levels.
as §3, §4, §5, §6
(§9) Loewe Volume (Loewe Vol) is used to assess the overall magnitude of the combination interaction in excess of the Loewe additivity model. Loewe Volume is particularly useful when distinguishing synergistic increases in a phenotypic activity (positive Loewe Volume) versus synergistic antagonisms (negative Loewe Volume). […] This model defines additivity as a non-synergistic combination interaction where the combination dose matrix surface should be indistinguishable from either drug crossed with itself. The calculation for Loewe additivity is:

GRANTA-519 = assay: as above; conditions: combination with Compound 1
Description: as §1, §2, §3, §4, §5, §6, §7

SU-DHL-4-epst = assay: as above; conditions: combination with Compound 1, 72 h
Description: as §1, §8, §3, §4, §5, §6, §9

Farage = assay: as above; conditions: combination with Compound 1; Farage; 72 h
[2] = as above; conditions: combination with Compound 1; OPM-2
OMP-2 = assay: as above; conditions: combination with Compound 1; OPM-2
SU-DHL-10-epst = assay: as above; conditions: combination with Compound 1, 72 h

CC1(C)/C(=C2/C(=O)Nc3ccc(S(N)(=O)=O)cc32)Nc2ccccc21 [ZK-304709, (Z)-3,3-dimethyl-2′-oxo-[2,3′-biindolinylidene]-5′-sulfonamide]
IC50 values, CDK1, CDK2, CDK4, CDK7 and CDK9 [1]: nanomolar range

CCCCCCCCCCCCCCCCCCOP(=O)([O-])OC1CC[N+](C)(C)CC1 [perifosine, 1,1-dimethylpiperidinium-4-yl octadecyl phosphate]
CI50 growth inhibition (RL): W (W=≥1) | CI50 inhibition (RL): W (W=≥1) | Synergy Score growth inhibition (RL): A1 (A1=0.0001 to <1) | Synergy Score inhibition (RL): A1 (A1=0.0001 to <1) | CI50 growth inhibition (Jeko-1): U (U=0.7 to <1) | CI50 inhibition (Jeko-1): W (W=≥1) | Synergy Score growth inhibition (Jeko-1): A1 (A1=0.0001 to <1) | Synergy Score inhibition (Jeko-1): A1 (A1=0.0001 to <1) | CI50 growth inhibition (KARPAS-422): W (W=≥1) | CI50 inhibition (KARPAS-422): U (U=0.7 to <1) | Synergy Score growth inhibition (KARPAS-422): A1 (A1=0.0001 to <1) | Synergy Score inhibition (KARPAS-422): A1 (A1=0.0001 to <1) | CI50 growth inhibition (TMD8): T (T=0.5 to <0.7) | CI50 inhibition (TMD8): T (T=0.5 to <0.7) | Synergy Score growth inhibition (TMD8): A2 (A2=1 to <3) | Synergy Score inhibition (TMD8): A2 (A2=1 to <3) | CI50 growth inhibition (Mino): U (U=0.7 to <1) | CI50 inhibition (Mino): W (W=≥1) | Synergy Score growth inhibition (Mino): A2 (A2=1 to <3) | Synergy Score inhibition (Mino): A1 (A1=0.0001 to <1) | CI50 growth inhibition (OCI-Ly7): U (U=0.7 to <1) | CI50 inhibition (OCI-Ly7): W (W=≥1) | Synergy Score growth inhibition (OCI-Ly7): A2 (A2=1 to <3) | Synergy Score inhibition (OCI-Ly7): A1 (A1=0.0001 to <1) | CI50 growth inhibition (HH): W (W=≥1) | CI50 inhibition (HH): S (S=0.01 to <0.5) | Synergy Score growth inhibition (HH): A3 (A3=>3) | Synergy Score inhibition (HH): A2 (A2=1 to <3) | CI50 growth inhibition (RPMI-8226): T (T=0.5 to <0.7) | CI50 inhibition (RPMI-8226): U (U=0.7 to <1) | Synergy Score growth inhibition (RPMI-8226): A3 (A3=>3) | Synergy Score inhibition (RPMI-8226): A1 (A1=0.0001 to <1) | CI50 growth inhibition (U-2932): W (W=≥1) | CI50 inhibition (U-2932): W (W=≥1) | Synergy Score growth inhibition (U-2932): A1 (A1=0.0001 to <1) | Synergy Score inhibition (U-2932): A1 (A1=0.0001 to <1) | CI50 growth inhibition (WSU-NHL): U (U=0.7 to <1) | CI50 inhibition (WSU-NHL): T (T=0.5 to <0.7) | Synergy Score growth inhibition (WSU-NHL): A3 (A3=>3) | Synergy Score inhibition (WSU-NHL): A2 (A2=1 to <3) | CI50 growth inhibition (OCI-Ly3): W (W=≥1) | CI50 inhibition (OCI-Ly3): W (W=≥1) | Synergy Score growth inhibition (OCI-Ly3): A1 (A1=0.0001 to <1) | Synergy Score inhibition (OCI-Ly3): A1 (A1=0.0001 to <1) | CI50 growth inhibition (NCI-H929): U (U=0.7 to <1) | CI50 inhibition (NCI-H929): W (W=≥1) | Synergy Score growth inhibition (NCI-H929): A2 (A2=1 to <3) | Synergy Score inhibition (NCI-H929): A1 (A1=0.0001 to <1) | CI50 growth inhibition (HBL-1): U (U=0.7 to <1) | CI50 inhibition (HBL-1): W (W=≥1) | Synergy Score growth inhibition (HBL-1): A3 (A3=>3) | Synergy Score inhibition (HBL-1): A1 (A1=0.0001 to <1) | CI50 growth inhibition (KARPAS-299): W (W=≥1) | CI50 inhibition (KARPAS-299): W (W=≥1) | Synergy Score growth inhibition (KARPAS-299): A1 (A1=0.0001 to <1) | Synergy Score inhibition (KARPAS-299): A1 (A1=0.0001 to <1) | CI50 growth inhibition (DOHH-2): T (T=0.5 to <0.7) | CI50 inhibition (DOHH-2): U (U=0.7 to <1) | Synergy Score growth inhibition (DOHH-2): A3 (A3=>3) | Synergy Score inhibition (DOHH-2): A2 (A2=1 to <3) | CI50 growth inhibition (GRANTA-519): S (S=0.01 to <0.5) | CI50 inhibition (GRANTA-519): W (W=≥1) | Synergy Score growth inhibition (GRANTA-519): A2 (A2=1 to <3) | Synergy Score inhibition (GRANTA-519): A1 (A1=0.0001 to <1) | CI50 growth inhibition (SU-DHL-4-epst): S (S=0.01 to <0.5) | CI50 inhibition (SU-DHL-4-epst): U (U=0.7 to <1) | Synergy Score growth inhibition (SU-DHL-4-epst): A2 (A2=1 to <3) | Synergy Score inhibition (SU-DHL-4-epst): A1 (A1=0.0001 to <1) | CI50 growth inhibition (Farage): S (S=0.01 to <0.5) | CI50 inhibition (Farage): T (T=0.5 to <0.7) | Synergy Score growth inhibition (Farage): A3 (A3=>3) | Synergy Score inhibition (Farage): A2 (A2=1 to <3) | CI50 growth inhibition [2]: U (U=0.7 to <1) | CI50 inhibition (OMP-2): W (W=≥1) | Synergy Score growth inhibition (OMP-2): A2 (A2=1 to <3) | Synergy Score inhibition (OMP-2): A1 (A1=0.0001 to <1) | CI50 growth inhibition (SU-DHL-10-epst): T (T=0.5 to <0.7) | CI50 inhibition (SU-DHL-10-epst): U (U=0.7 to <1) | Synergy Score growth inhibition (SU-DHL-10-epst): A2 (A2=1 to <3) | Synergy Score inhibition (SU-DHL-10-epst): A2 (A2=1 to <3)

CC(=O)Nc1cccc(-n2c(=O)n(C3CC3)c(=O)c3c(Nc4ccc(I)cc4F)n(C)c(=O)c(C)c32)c1 [trametinib, N-(3-{3-cyclopropyl-5-[(2-fluoro-4-iodophenyl)amino]-6,8-dimethyl-2,4,7-trioxo-3,4,6,7-tetrahydropyrido[4,3-d]pyrimidin-1(2H)-yl}phenyl)acetamide]
Synergy Score growth inhibition (RL): A1 (A1=0.0001 to <1) | Synergy Score inhibition (RL): A1 (A1=0.0001 to <1) | CI50 growth inhibition (Jeko-1): U (U=0.7 to <1) | CI50 inhibition (Jeko-1): W (W=≥1) | Synergy Score growth inhibition (Jeko-1): A1 (A1=0.0001 to <1) | Synergy Score inhibition (Jeko-1): A1 (A1=0.0001 to <1) | CI50 growth inhibition (KARPAS-422): S (S=0.01 to <0.5) | CI50 inhibition (KARPAS-422): S (S=0.01 to <0.5) | Synergy Score growth inhibition (KARPAS-422): A2 (A2=1 to <3) | Synergy Score inhibition (KARPAS-422): A2 (A2=1 to <3) | CI50 growth inhibition (TMD8): S (S=0.01 to <0.5) | CI50 inhibition (TMD8): S (S=0.01 to <0.5) | Synergy Score growth inhibition (TMD8): A3 (A3=>3) | Synergy Score inhibition (TMD8): A3 (A3=>3) | effect of the combination (isobologram) (TMD8; TMD8 DLBCL cell line, FIG. 1-3): synergistic effect | CI50 growth inhibition (Mino): S (S=0.01 to <0.5) | CI50 inhibition (Mino): S (S=0.01 to <0.5) | Synergy Score growth inhibition (Mino): A3 (A3=>3) | Synergy Score inhibition (Mino): A3 (A3=>3) | Synergy Score growth inhibition (OCI-Ly7): A1 (A1=0.0001 to <1) | Synergy Score inhibition (OCI-Ly7): A1 (A1=0.0001 to <1) | CI50 growth inhibition (HH): S (S=0.01 to <0.5) | CI50 inhibition (HH): S (S=0.01 to <0.5) | Synergy Score growth inhibition (HH): A3 (A3=>3) | Synergy Score inhibition (HH): A2 (A2=1 to <3) | CI50 growth inhibition (RPMI-8226): U (U=0.7 to <1) | Synergy Score growth inhibition (RPMI-8226): A2 (A2=1 to <3) | Synergy Score inhibition (RPMI-8226): A1 (A1=0.0001 to <1) | CI50 growth inhibition (U-2932): U (U=0.7 to <1) | Synergy Score growth inhibition (U-2932): A1 (A1=0.0001 to <1) | Synergy Score inhibition (U-2932): A1 (A1=0.0001 to <1) | CI50 growth inhibition (WSU-NHL): T (T=0.5 to <0.7) | CI50 inhibition (WSU-NHL): S (S=0.01 to <0.5) | Synergy Score growth inhibition (WSU-NHL): A3 (A3=>3) | Synergy Score inhibition (WSU-NHL): A3 (A3=>3) | CI50 growth inhibition (OCI-Ly3): W (W=≥1) | Synergy Score growth inhibition (OCI-Ly3): A2 (A2=1 to <3) | Synergy Score inhibition (OCI-Ly3): A1 (A1=0.0001 to <1) | CI50 growth inhibition (NCI-H929): T (T=0.5 to <0.7) | CI50 inhibition (NCI-H929): S (S=0.01 to <0.5) | Synergy Score growth inhibition (NCI-H929): A3 (A3=>3) | Synergy Score inhibition (NCI-H929): A2 (A2=1 to <3) | CI50 growth inhibition (HBL-1): U (U=0.7 to <1) | Synergy Score growth inhibition (HBL-1): A2 (A2=1 to <3) | Synergy Score inhibition (HBL-1): A1 (A1=0.0001 to <1) | Synergy Score growth inhibition (KARPAS-299): A1 (A1=0.0001 to <1) | Synergy Score inhibition (KARPAS-299): A1 (A1=0.0001 to <1) | CI50 growth inhibition (DOHH-2): U (U=0.7 to <1) | CI50 inhibition (DOHH-2): W (W=≥1) | Synergy Score growth inhibition (DOHH-2): A3 (A3=>3) | Synergy Score inhibition (DOHH-2): A2 (A2=1 to <3) | CI50 growth inhibition (GRANTA-519): S (S=0.01 to <0.5) | Synergy Score growth inhibition (GRANTA-519): A2 (A2=1 to <3) | Synergy Score inhibition (GRANTA-519): A1 (A1=0.0001 to <1) | CI50 growth inhibition (SU-DHL-4-epst): S (S=0.01 to <0.5) | CI50 inhibition (SU-DHL-4-epst): S (S=0.01 to <0.5) | Synergy Score growth inhibition (SU-DHL-4-epst): A3 (A3=>3) | Synergy Score inhibition (SU-DHL-4-epst): A2 (A2=1 to <3) | CI50 growth inhibition (Farage): W (W=≥1) | CI50 inhibition (Farage): U (U=0.7 to <1) | Synergy Score growth inhibition (Farage): A2 (A2=1 to <3) | Synergy Score inhibition (Farage): A2 (A2=1 to <3) | CI50 growth inhibition [2]: T (T=0.5 to <0.7) | CI50 inhibition (OMP-2): W (W=≥1) | Synergy Score growth inhibition (OMP-2): A2 (A2=1 to <3) | Synergy Score inhibition (OMP-2): A2 (A2=1 to <3) | CI50 growth inhibition (SU-DHL-10-epst): S (S=0.01 to <0.5) | CI50 inhibition (SU-DHL-10-epst): S (S=0.01 to <0.5) | Synergy Score growth inhibition (SU-DHL-10-epst): A3 (A3=>3) | Synergy Score inhibition (SU-DHL-10-epst): A3 (A3=>3)
